28 compounds from patent publication US6605634B2 (Amgen, Inc., priority 1996, dated 2003) can be followed below.

Some results are limits rather than exact numbers.

This experiment relates to production of tumor necrosis factor (TNF) by monocytes activated with bacterial lipopolysaccharide (LPS). In words: Lipopolysaccharide-activated Monocyte TNF Production Assay. Format: cell-based. The following applies: Homo sapiens, TNF in culture supernatants by ELISA, read-out: IC50 (concentration of test compounds causing a 50% reduction in TNF production). The protocol:
Lipopolysaccharide-activated Monocyte TNF Production Assay
Test compounds were evaluated in vitro for the ability to inhibit the production of tumor necrosis factor (TNF) by monocytes activated with bacterial lipopolysaccharide (LPS). Fresh residual source leukocytes (a byproduct of plateletpheresis) were obtained from the local blood bank and peripheral blood mononuclear cells (PBMCs) were isolated by density gradient centrifugation on Ficol-Paque Plus (Pharmacia). PBMCs were suspended at 2×10^6/ml in DMEM supplemented to contain 2% FCS (10 mM), 0.3 mg/ml glutamate, 100 U/ml penicillin G and […] streptomycin sulfate (complete media). Cells were plated into Falcon flatbottom 96 well culture plates (200 μl/well) and cultured overnight at 37° C. and 6% CO2. Nonadherent cells were removed by washing with 200 μl/well of fresh medium. Wells containing adherent cells (˜70% monocytes) were replenished with 100 μl of fresh medium.
Preparation of Test Compound Stock Solutions
Test compounds were dissolved in […]. Compound stock solutions were prepared to an initial concentration of […]. Stocks were diluted initially to 20-200 μM in complete media. Nine two-fold serial dilutions of each compound were then prepared in complete medium.
Treatment of Cells with Test Compounds and Activation of TNF Production with Lipopolysaccharide
One hundred microliters of each test compound dilution were added to microtiter wells containing adherent monocytes and 100 μl complete medium. Monocytes were cultured with test compounds for 60 min at which time 25 μl of complete medium containing 30 ng/ml lipopolysaccharide from E. coli K532 were added to each well. Cells were cultured an additional 4 hrs. Culture supernatants were then removed and TNF present in the supernatants was quantified using an ELISA.
Flat bottom 96 well Coming High Binding ELISA plates were coated overnight (4° C.) with 150 μL/well of 3 μg/ml murine anti-human TNFa MAb (R&D Systems #MAB210). Wells were then blocked 1 h at room temperature with 200 μL/well of CaCl2-free ELISA buffer supplemented to contain 20 mg/ml BSA (standard ELISA buffer: […], 150 mM NaCl, 2 mM CaCl2, 0.15 mM thimerosal, pH 7.4). Plates were washed and replenished with 100 μl of test supernatants (diluted 1:3) or standards. Standards consisted of eleven 1.5-fold serial dilutions from a stock of 1 ng/ml recombinant human TNF (R&D Systems). Plates were incubated at room temperature for 1 h on orbital shaker (300 rpm), washed and replenished with 100 μl/well of 0.5 jig/ml goat anti-human TNFa (R&D systems #AB-210-NA) biotinylated at a 4:1 ratio. Plates were incubate for 40 min, washed and replenished with 100 μl/well of alkaline phosphatase-conjugated streptavidin (Jackson ImmunoResearch #016-050-084) at 0.02 μg/ml. Plates were incubated 30 min, washed and replenished with 200 μl well of 1 mg/ml of p-nitrophenyl phosphate. After 30 min, plates were read at 405 nm on a Vmax plate reader.
Standard curve data were fit to a second order polynomial and unknown TNF-a concentrations determined from their OD by solving this equation for concentration. TNF concentrations were then plotted Vs test compound concentration using a second order polynomial. This equation was then used to calculate the concentration of test compounds causing a 50% reduction in TNF production.
With `O=S(=O)(Nc1ccc2c(-c3ccncc3)c(-c3ccc(F)cc3)[nH]c2n1)c1ccc(Cl)s1` [Compound 95, 6-(2′-(5-chlorothienyl)sulfonylamino)-3-(4-pyridyl)-2-(4-fluorophenyl)-7-aza-indole], the IC50 is below 20 µM.

`O=C(CCN1C(=O)c2ccccc2C1=O)Nc1ccc2c(-c3ccncc3)c(-c3ccc(F)cc3)[nH]c2n1` [Compound 98, 6-(3′-N-phthaloyl-1′-oxo-propylamino)-3-(4-pyridyl)-2-(4-fluorophenyl)-7-aza-indole]: the IC50 was below 20 µM.

Regarding `Fc1ccc(-c2[nH]c3nccnc3c2-c2ccncc2)cc1` [Compound 99, 3-(4-pyridyl)-2-(4-fluorophenyl)-4,7-diaza-indole], the IC50 is below 20 µM.

`CC(C)(C)OC(=O)N1CCC[C@H]1C(=O)Nc1ccc2c(-c3ccncc3)c(-c3ccc(F)cc3)[nH]c2n1` [Compound 100, 6-(2′-N-t-Butoxycarbonyl-L-prolylamino)-3-(4-pyridyl)-2-(4-fluorophenyl)-7-aza-indole]: the IC50 was below 20 µM.

Consider `O=C(Nc1ccc2c(-c3ccncc3)c(-c3ccc(F)cc3)[nH]c2n1)[C@@H]1CCCN1` [Compound 101, 6-(2′-L-prolylamino)-3-(4-pyridyl)-2-(4-fluorophenyl)-7-aza-indole], for which the IC50 is below 20 µM.

Turning to `C[C@@H](C(=O)Nc1ccc2c(-c3ccncc3)c(-c3ccc(F)cc3)[nH]c2n1)N(C)C` [Compound 102, 6-(2S′-dimethylamino-1′-oxo-propylamino)-3-(4-pyridyl)-2-(4-fluorophenyl)-7-aza-indole], the IC50 is below 1 µM.

As for `CN(C)CC(=O)Nc1ccc2c(-c3ccncc3)c(-c3ccc(F)cc3)[nH]c2n1` [Compound 103, 6-(2′-Dimethylamino-1′-oxo-ethylamino)-3-(4-pyridyl)-2-(4-fluorophenyl)-7-aza-indole], the IC50 is below 20 µM.

With `CN(CC(=O)Nc1ccc2c(-c3ccncc3)c(-c3ccc(F)cc3)[nH]c2n1)C(=O)OC(C)(C)C` [Compound 104, 6-(2′-N-methyl-t-butoxycarbonylamino-1′-oxo-ethylamino)-3-(4-pyridyl)-2-(4-fluorophenyl)-7-aza-indole], the IC50 is below 1 µM.

`CNCC(=O)Nc1ccc2c(-c3ccncc3)c(-c3ccc(F)cc3)[nH]c2n1` [Compound 105, 6-(2′-N-methyl-amino-1′-oxo-ethylamino)-3-(4-pyridyl)-2-(4-fluorophenyl)-7-aza-indole]: the IC50 was below 1 µM.

In the case of `CC(C)(C)OC(=O)N1CCC(C(=O)Nc2ccc3c(-c4ccncc4)c(-c4ccc(F)cc4)[nH]c3n2)CC1` [Compound 106, 6-(4′-N-t-butoxycarbonylisonipecotylamino)-3-(4-pyridyl)-2-(4-fluorophenyl)-7-aza-indole], the IC50 is below 1 µM.

As for `O=C(Nc1ccc2c(-c3ccncc3)c(-c3ccc(F)cc3)[nH]c2n1)C1CCNCC1` [Compound 107, 6-(4′-isonipecotylamino)-3-(4-pyridyl)-2-(4-fluorophenyl)-7-aza-indole], the IC50 is below 1 µM.

As for `C[S+]([O-])CC[C@H](NC(=O)OC(C)(C)C)C(=O)Nc1ccc2c(-c3ccncc3)c(-c3ccc(F)cc3)[nH]c2n1` (stereo partly shown) [Compound 108, 6-(4′-methylsulfoxo-1′-oxo-2′S-t-butoxycarbonylaminobutylamino)-3-(4-pyridyl)-2-(4-fluorophenyl)-7-aza-indole], the IC50 was below 20 µM.

As to `C[S+]([O-])CC[C@H](N)C(=O)Nc1ccc2c(-c3ccncc3)c(-c3ccc(F)cc3)[nH]c2n1` (stereo partly shown) [Compound 109, 6-(4′-methylsulfoxo-1′-oxo-2′S-aminobutylamino)-3-(4-pyridyl)-2-(4-fluorophenyl)-7-aza-indole], the IC50 is below 20 µM.

For `CC(C)(C)OC(=O)N[C@@H](Cc1cccnc1)C(=O)Nc1ccc2c(-c3ccncc3)c(-c3ccc(F)cc3)[nH]c2n1` [Compound 110, 6-(3′-(3-pyridyl)-1′-oxo-2′S-t-butoxycarbonylaminopropylamino)-3-(4-pyridyl)-2-(4-fluorophenyl)-7-aza-indole], the IC50 was below 20 µM.

On to `N[C@@H](Cc1cccnc1)C(=O)Nc1ccc2c(-c3ccncc3)c(-c3ccc(F)cc3)[nH]c2n1` [Compound 111, 6-(3′-(3-pyridyl)-1′-oxo-2′S-aminopropylamino)-3-(4-pyridyl)-2-(4-fluorophenyl)-7-aza-indole], for which the IC50 is below 20 µM.

As for `CC(C)(C)OC(=O)N[C@@H](Cc1cncn1C(=O)OC(C)(C)C)C(=O)Nc1ccc2c(-c3ccncc3)c(-c3ccc(F)cc3)[nH]c2n1` [Compound 112], the IC50 was below 20 µM.

As to `N[C@@H](Cc1cnc[nH]1)C(=O)Nc1ccc2c(-c3ccncc3)c(-c3ccc(F)cc3)[nH]c2n1` [Compound 113, 6-(L-histidinylamino)-3-(4-pyridyl)-2-(4-fluorophenyl)-7-aza-indole], the IC50 was below 20 µM.

As for `O=C(Nc1ccc2c(-c3ccncc3)c(-c3ccc(F)cc3)[nH]c2n1)[C@@H]1Cc2ccccc2CN1` [Compound 115, 6-(3(S) 1′,2′,3′,4′-tetrahydro-3′-isoguinolinyloxoamino)-3-(4-pyridyl)-2-(4-fluorophenyl)-7-aza-indole], the IC50 was below 20 µM.

Turning to `N[C@@H](C(=O)Nc1ccc2c(-c3ccncc3)c(-c3ccc(F)cc3)[nH]c2n1)c1ccccc1` [Compound 117, 6-(2′-phenyl-1′-oxo-2′R-aminoethylamino)-3-(4-pyridyl)-2-(4-fluorophenyl)-7-aza-indole], the IC50 is below 1 µM.

On to `N[C@H](C(=O)Nc1ccc2c(-c3ccncc3)c(-c3ccc(F)cc3)[nH]c2n1)c1ccccc1` [Compound 119, 6-(2′-phenyl-1′-oxo-2′S-aminoethylamino)-3-(4-pyridyl)-2-(4-fluorophenyl)-7-aza-indole], for which the IC50 was below 1 µM.

`CN[C@@H](C(=O)Nc1ccc2c(-c3ccncc3)c(-c3ccc(F)cc3)[nH]c2n1)c1ccccc1` [Compound 121, 6-(2′-phenyl-1′-oxo-2′R-N-methylaminoethylamino)-3-(4-pyridyl)-2-(4-fluorophenyl)-7-aza-indole]: the IC50 is below 1 µM.

In the case of `C[C@H](N)C(=O)Nc1ccc2c(-c3ccncc3)c(-c3ccc(F)cc3)[nH]c2n1` [Compound 123, 6-(1′-oxo-2′S-aminopropylamino)-3-(4-pyridyl)-2-(4-fluorophenyl)-7-aza-indole], the IC50 was below 1 µM.

Take `N[C@@H](Cc1ccccc1)C(=O)Nc1ccc2c(-c3ccncc3)c(-c3ccc(F)cc3)[nH]c2n1` [Compound 125, 6-(3′-phenyl-1′-oxo-2′-(L)-aminopropylamino)-3-(4-pyridyl)-2-(4-fluorophenyl)-7-aza-indole]: the IC50 is below 20 µM.

As for `CN[C@@H](C)C(=O)Nc1ccc2c(-c3ccncc3)c(-c3ccc(F)cc3)[nH]c2n1` [Compound 127, 6-(1′-oxo-2′S-N-methylaminopropylamino)-3-(4-pyridyl)-2-(4-fluorophenyl)-7-aza-indole], the IC50 is below 1 µM.

`CN[C@@H](CC(C)C)C(=O)Nc1ccc2c(-c3ccncc3)c(-c3ccc(F)cc3)[nH]c2n1` [Compound 129, 6-(1′-oxo-2′S-N-methyl-4-methyl-2-aminopentylamino)-3-(4-pyridyl)-2-(4-fluorophenyl)-7-aza-indole]: the IC50 was below 20 µM.

`C[C@@H](N)C(=O)Nc1ccc2c(-c3ccncc3)c(-c3ccc(F)cc3)[nH]c2n1` [Compound 131, 6-(1′-oxo-2′R-aminopropylamino)-3-(4-pyridyl)-2-(4-fluorophenyl)-7-aza-indole]: the IC50 was below 1 µM.

As to `N[C@@H](Cc1cccs1)C(=O)Nc1ccc2c(-c3ccncc3)c(-c3ccc(F)cc3)[nH]c2n1` [Compound 133, 6-(3′-(2-thienyl)-1′-oxo-2′-(L)-aminopropylamino)-3-(4-pyridyl)-2-(4-fluorophenyl)-7-aza-indole], the IC50 was below 20 µM.

For the compound `[N-]=[N+]=Nc1ccc(C[C@H](N)C(=O)Nc2ccc3c(-c4ccncc4)c(-c4ccc(F)cc4)[nH]c3n2)cc1` [Compound 135, 6-(3′-(4-azidophenyl)-1′-oxo-2′S-aminopropylamino)-3-(4-pyridyl)-2-(4-fluorophenyl)-7-aza-indole], the IC50 was below 20 µM.
